Source: publication PMC6514978, “Synthesis, Antibacterial Activities, Mode of Action and Acute Toxicity Studies of New Oxazolidinone-Fluoroquinolone Hybrids” (Molecules, 2019)
Converted amounts (≈) assume the structure as drawn.

Experiments:
[1] = system: S. epidermidis (10) clinical isolates; test: Susceptibility of clinical isolates (MIC); format: cell-based, Staphylococcus epidermidis; details: for Cumulative % of strains inhibited at MIC / No. of strains inhibited at MIC: S. epidermidis (10)
Protocol: (§1) Susceptibility testing of oxazolidinone-fluoroquinolone hybrids against various bacteria was performed by the broth microdilution method as outlined by the Clinical and Laboratory Standards Institute (CLSI). Three types of media, including cation-adjusted Mueller Hinton broth, Haemophilus Test Medium and cation-adjusted Mueller Hinton broth that contained 3%–5% lysed horse blood, were used to culture the corresponding bacteria. […] A final inoculum of 5 × 10^5 CFU/mL was used and plates were read after incubation for 16–24 h at 35 °C. […] Standard quality control strains (ATCC) were included throughout. Each determination was repeated in triplicate.

[2] = system: S. aureus (46) clinical isolates; test: Susceptibility of clinical isolates (MIC); format: cell-based, Staphylococcus aureus; details: for Cumulative % of strains inhibited at MIC / No. of strains inhibited at MIC: S. aureus (46)
Protocol: as §1

[3] = system: E. faecium (47) clinical isolates; test: Susceptibility of clinical isolates (MIC); format: cell-based, Enterococcus faecium; details: for Cumulative % of strains inhibited at MIC / No. of strains inhibited at MIC: E. faecium (47)
Protocol: as §1

MRSE = test: MIC against drug-resistant strain; format: cell-based, S. epidermidis; details: Staphylococcus epidermidis, read-out: MIC
Protocol: (§2) 6 standard strains and 3 clinical isolates were used to the preliminary evaluation of in vitro antibacterial activities of oxazolidinone-fluoroquinolone hybrids.
as §1

[4] = system: S. pneumoniae (13) clinical isolates; test: Susceptibility of clinical isolates (MIC); format: cell-based, Streptococcus pneumoniae; details: for Cumulative % of strains inhibited at MIC / No. of strains inhibited at MIC: S. pneumoniae (13)
Protocol: as §1

E. coli (ATCC25922) = test: MIC, broth microdilution (CLSI), standard strain; format: cell-based; details: Escherichia coli; E. coli (ATCC25922); read-out: MIC
From the text: (§3) 6 standard strains and 3 clinical isolates were used to the preliminary evaluation of in vitro antibacterial activities of oxazolidinone-fluoroquinolone hybrids. For the further evaluation of hybrids OBP-4 and OBP-5, 263 clinical isolates including S. aureus (46), S. haemolyticus(32), S. epidermidis (10), E. faecalis (72), E. faecium (47), S. pneumoniae (13), H. parasuis (34), S. suis (9), and 8 resistant strains including MRSA, MRSE, CIP-resistant S. aureus and S. haemolyticus, VAN and quinolone-resistant S. pneumoniae, LZD-resistant E. faecalis, LZD/VAN and quinolone-resistant E. faecium were collected and tested.
(§4) Susceptibility testing of oxazolidinone-fluoroquinolone hybrids against various bacteria was performed by the broth microdilution method as outlined by the Clinical and Laboratory Standards Institute (CLSI). Three types of media, including cation-adjusted Mueller Hinton broth, Haemophilus Test Medium and cation-adjusted Mueller Hinton broth that contained 3%–5% lysed horse blood, were used to culture the corresponding bacteria. All compounds including comparator drugs were dissolved in an appropriate solvent at a concentration of 2.048 mg/mL and then serially diluted two-fold to provide the required concentrations. A final inoculum of 5 × 10^5 CFU/mL was used and plates were read after incubation for 16–24 h at 35 °C. […] Standard quality control strains (ATCC) were included throughout. Each determination was repeated in triplicate.

[5] = system: S. pneumoniae (ATCC49619); test: MIC, broth microdilution (CLSI), standard strain; format: cell-based; details: Streptococcus pneumoniae
From the text: as §3, §4

[6] = system: P. Aeruginosa (ATCC27853); test: MIC, broth microdilution (CLSI), standard strain; format: cell-based; details: Pseudomonas aeruginosa; P. Aeruginosa (ATCC27853); read-out: MIC
From the text: as §3, §4

[7] = system: H. influenzae (ATCC49247); test: MIC, broth microdilution (CLSI), standard strain; format: cell-based; details: Haemophilus influenzae
From the text: as §3, §4

E. faecalis (ATCC29212) = test: MIC, broth microdilution (CLSI), standard strain; format: cell-based; details: Enterococcus faecalis; E. faecalis (ATCC29212); read-out: MIC
From the text: as §3, §4

S. aureus (ATCC29213) = test: MIC, broth microdilution (CLSI), standard strain; format: cell-based; details: Staphylococcus aureus
From the text: as §3, §4

[8] = system: S. agalactiae^R (13B317), levofloxacin-resistant S. agalactiae; test: MIC, broth microdilution (CLSI), clinical isolate; format: cell-based; details: Streptococcus agalactiae; levofloxacin-resistant S. agalactiae (13B317)
From the text: as §3, §4

MRSA (13B262) = test: MIC, broth microdilution (CLSI), clinical isolate; format: cell-based; details: Staphylococcus aureus
From the text: as §3, §4

MRSA = test: MIC against drug-resistant strain; format: cell-based; details: Staphylococcus aureus, read-out: MIC
Protocol: as §2, §1

[9] = system: VAN and quinolone-resistant E. faecium; test: MIC against drug-resistant strain; format: cell-based; details: Enterococcus faecium; E. faecium, VAN and quinolone-resistant; read-out: MIC
Protocol: as §2, §1

[10] = system: VAN and quinolone-resistant S. pneumoniae; test: MIC against drug-resistant strain; format: cell-based; details: Streptococcus pneumoniae; S. pneumoniae, VAN and quinolone-resistant; read-out: MIC
Protocol: as §2, §1

[11] = system: LZD and quinolone-resistant E. faecium; test: MIC against drug-resistant strain; format: cell-based; details: Enterococcus faecium; E. faecium, LZD and quinolone-resistant; read-out: MIC
Protocol: as §2, §1

CIP-resistant S. aureus = test: MIC against drug-resistant strain; format: cell-based; details: Staphylococcus aureus; S. aureus, CIP-resistant; read-out: MIC
Protocol: as §2, §1

[12] = system: CIP-resistant S. haemolyticus; test: MIC against drug-resistant strain; format: cell-based; details: Staphylococcus haemolyticus; S. haemolyticus, CIP-resistant; read-out: MIC
Protocol: as §2, §1

[13] = system: S. haemolyticus (32) clinical isolates; test: Susceptibility of clinical isolates (MIC); format: cell-based, Staphylococcus haemolyticus; details: for Cumulative % of strains inhibited at MIC / No. of strains inhibited at MIC: S. haemolyticus (32)
Protocol: as §1

[14] = system: LZD-resistant E. faecalis; test: microbe, parasite or virus in culture; format: cell-based; details: Enterococcus faecalis
Protocol: as §2, §1

C[C@H]1CCc2c(N3CCC(O)(COc4ccc(N5C[C@H](CO)OC5=O)cc4F)CC3)c(F)cc3c(=O)c(C(=O)O)cn1c23 [OBP-4]
Cumulative % of strains inhibited at MIC ([1]; MIC 0.125 µg/mL): 60.0% | No. of strains inhibited at MIC ([1]; MIC 0.125 µg/mL): 4 | Cumulative % of strains inhibited at MIC ([1]; MIC […]): 100.0% | No. of strains inhibited at MIC ([1]; MIC […]): 4 | Cumulative % of strains inhibited at MIC ([1]; MIC ≤[…]): 20.0% | No. of strains inhibited at MIC ([1]; MIC ≤[…]): 2 | MIC50 ([1]; Staphylococcus epidermidis, S. epidermidis, 10 clinical isolates, read-out: MIC50): 0.125 µg/mL (≈ 0.208 µM) | MIC90 ([1]; Staphylococcus epidermidis, S. epidermidis, 10 clinical isolates, read-out: MIC90): 0.25 µg/mL (≈ 0.417 µM) | MIC ([1]; Staphylococcus epidermidis, S. epidermidis, 10 clinical isolates, read-out: MIC Range): 0.0625 to 0.25 µg/mL (≈ 0.104 to 0.417 µM) | Cumulative % of strains inhibited at MIC ([2]; MIC 0.125 µg/mL): 93.5% | No. of strains inhibited at MIC ([2]; MIC 0.125 µg/mL): 17 | Cumulative % of strains inhibited at MIC ([2]; MIC […]): 100.0% | No. of strains inhibited at MIC ([2]; MIC […]): 3 | Cumulative % of strains inhibited at MIC ([2]; MIC ≤[…]): 56.5% | No. of strains inhibited at MIC ([2]; MIC ≤[…]): 26 | MIC50 ([2]; Staphylococcus aureus, S. aureus, 46 clinical isolates, read-out: MIC50): ≤ 0.0625 µg/mL | MIC90 ([2]; Staphylococcus aureus, S. aureus, 46 clinical isolates, read-out: MIC90): 0.125 µg/mL (≈ 0.208 µM) | MIC ([2]; Staphylococcus aureus, S. aureus, 46 clinical isolates, read-out: MIC Range): 0.0625 to 0.25 µg/mL (≈ 0.104 to 0.417 µM) | Cumulative % of strains inhibited at MIC ([3]; MIC 0.5 µg/mL): 95.7% | No. of strains inhibited at MIC ([3]; MIC 0.5 µg/mL): 37 | Cumulative % of strains inhibited at MIC ([3]; MIC 1 µg/mL): 97.9% | No. of strains inhibited at MIC ([3]; MIC 1 µg/mL): 1 | Cumulative % of strains inhibited at MIC ([3]; MIC 2 µg/mL): 100.0% | No. of strains inhibited at MIC ([3]; MIC 2 µg/mL): 1 | No. of strains inhibited at MIC ([3]; MIC […]): 8 | fold higher activity than comparator agents ([3]; E. faecium clinical isolates): 16- to 128 fold | MIC Range ([3]; E. faecium, 47 clinical isolates): 0.25 to 2 µg/mL | MIC (MRSE): ≤ 0.0625 µg/mL | Cumulative % of strains inhibited at MIC ([4]; MIC 0.125 µg/mL): 38.5% | No. of strains inhibited at MIC ([4]; MIC 0.125 µg/mL): 3 | Cumulative % of strains inhibited at MIC ([4]; MIC 0.5 µg/mL): 100.0% | No. of strains inhibited at MIC ([4]; MIC 0.5 µg/mL): 1 | Cumulative % of strains inhibited at MIC ([4]; MIC […]): 92.3% | No. of strains inhibited at MIC ([4]; MIC […]): 7 | Cumulative % of strains inhibited at MIC ([4]; MIC ≤[…]): 15.4% | No. of strains inhibited at MIC ([4]; MIC ≤[…]): 2 | MIC Range ([4]; S. pneumoniae, 13 clinical isolates): ≤0.0625 to 0.5 µg/mL | MIC50 ([4]; Streptococcus pneumoniae, S. pneumoniae, 13 clinical isolates, read-out: MIC50): 0.25 µg/mL (≈ 0.417 µM) | MIC90 ([4]; Streptococcus pneumoniae, S. pneumoniae, 13 clinical isolates, read-out: MIC90): 0.25 µg/mL (≈ 0.417 µM) | MIC (E. coli (ATCC25922)): 4 µg/mL (≈ 6.67 µM) | MIC [5]: 0.031 µg/mL (≈ 0.0517 µM) | MIC [6]: 64 µg/mL (≈ 107 µM) | MIC [7]: 0.25 µg/mL (≈ 0.417 µM) | MIC (E. faecalis (ATCC29212)): 0.25 µg/mL (≈ 0.417 µM) | MIC (S. aureus (ATCC29213)): 0.016 µg/mL (≈ 0.0267 µM) | MIC [8]: 0.031 µg/mL (≈ 0.0517 µM) | MIC (MRSA (13B262)): 0.5 µg/mL (≈ 0.834 µM) | MIC (MRSA): 0.25 µg/mL (≈ 0.417 µM) | MIC [9]: 0.5 µg/mL (≈ 0.834 µM) | MIC [10]: 0.25 µg/mL (≈ 0.417 µM) | MIC [11]: 0.5 µg/mL (≈ 0.834 µM) | MIC (CIP-resistant S. aureus): 0.125 µg/mL (≈ 0.208 µM) | MIC [12]: 0.5 µg/mL (≈ 0.834 µM) | Cumulative % of strains inhibited at MIC ([13]; MIC 0.125 µg/mL): 93.8% | No. of strains inhibited at MIC ([13]; MIC 0.125 µg/mL): 16 | Cumulative % of strains inhibited at MIC ([13]; MIC 0.5 µg/mL): 100.0% | No. of strains inhibited at MIC ([13]; MIC 0.5 µg/mL): 2 | Cumulative % of strains inhibited at MIC ([13]; MIC ≤[…]): 43.8% | No. of strains inhibited at MIC ([13]; MIC ≤[…]): 14 | MIC50 ([13]; Staphylococcus haemolyticus, S. haemolyticus, 32 clinical isolates, read-out: MIC50): 0.125 µg/mL (≈ 0.208 µM) | MIC90 ([13]; Staphylococcus haemolyticus, S. haemolyticus, 32 clinical isolates, read-out: MIC90): 0.125 µg/mL (≈ 0.208 µM) | MIC ([13]; Staphylococcus haemolyticus, S. haemolyticus, 32 clinical isolates, read-out: MIC Range): 0.0625 to 0.5 µg/mL (≈ 0.104 to 0.834 µM) | MIC [14]: 1 µg/mL (≈ 1.67 µM)
